According to patent US20080194585A1, “Fungicidal Pyrazine Derivatives” (priority 2005, published 2008):
Read-outs that look alike come from different tables or passages of the source. Marks after values point to notes of the source that are not given here.

Key:
[1] = test system: Septoria tritici; experiment: Test J: wheat leaf blotch, preventive spray on wheat seedlings; assay type: in vivo; settings: 100 = 100% disease control, 0 = no control; for Test J disease control rating / pest or weed control at 40 ppm: 40 ppm (marked *)
Text: A dash (-) indicates no test results.

[2] = test system: Phytophthora infestans; experiment: whole plant or invertebrate; assay type: in vivo; settings: for pest or weed control at 200 ppm: Phytophthora infestans, in Solanum lycopersicum, topical, 144 h, read-out: Test F disease control rating; for Test F disease control rating: 100 = 100% disease control
[3] = test system: Rhizoctonia oryzae; experiment: Test G: turf brown patch, preventive spray on creeping bent grass seedlings; settings: 100 = 100% disease control; for pest or weed control at 200 ppm: read-out: Test G disease control rating, 200 ppm; for Test G disease control rating: 40 ppm (marked *)
Procedure: (the causal agent of turf brown patch) and incubated in a saturated atmosphere at 27° C. for 24 h, and then moved to a growth chamber at 27° C. for 5 days, after which disease ratings were made.

[4] = test system: fusarium graminearium; experiment: Test I: wheat head scab, preventive spray on wheat seedlings; settings: 100 = 100% disease control; for pest or weed control at 200 ppm: Fusarium, in Triticum aestivum, topical, 192 h, read-out: Test I disease control rating, 200 ppm
Procedure: (the causal agent of wheat head scab) and incubated in a saturated atmosphere at 20° C. for 72 h, and then moved to a growth chamber at 22° C. for 5 days, after which disease ratings were made.

[5] = test system: Colletotrichum orbiculare; experiment: Test B: cucumber Colletotrichum anthracnose, preventive spray on cucumber seedlings; settings: 100 = 100% disease control; for pest or weed control at 200 ppm: read-out: Test B disease control rating, 200 ppm; for Test B disease control rating: 40 ppm (marked *)
[6] = test system: Pythium aphanidermatum; experiment: Test A: bluegrass pythium blight, preventive spray on bluegrass seedlings; settings: for pest or weed control at 200 ppm: Pythium aphanidermatum, 120 h, read-out: Test A disease control rating; for Test A disease control rating: 100 = 100% disease control
[7] = test system: Erysiphe graminis f. sp. tritici; experiment: Test L: wheat powdery mildew, preventive spray on wheat seedlings; settings: 100 = 100% disease control; for pest or weed control at 200 ppm: read-out: Test L disease control rating, 200 ppm; for Test L disease control rating: 40 ppm (marked *)
[8] = test system: Plasmopara viticola; experiment: Test D: grape downy mildew, spray after inoculation of grape seedlings; assay type: in vivo; settings: 100 = 100% disease control; for pest or weed control at 200 ppm: Plasmopara viticola, 168 h, read-out: Test D disease control rating
Text: Upon removal, disease ratings were made. […] A dash (-) indicates no test results.

[9] = test system: Septoria nodorum; experiment: Test H: wheat glum blotch, preventive spray on wheat seedlings; settings: 100 = 100% disease control; for pest or weed control at 200 ppm: read-out: Test H disease control rating, 200 ppm
Procedure: (the causal agent of wheat glum blotch) and incubated in a saturated atmosphere at 20° C. for 48 h, and then moved to a growth chamber at 22° C. for 5 days, after which disease ratings were made.

[10] = test system: Puccinia recondita f. sp. tritici; experiment: Test K: wheat leaf rust, preventive spray on wheat seedlings; settings: for Test K disease control rating: 40 ppm (marked *), 100 = 100% disease control, 0 = no control
[11] = test system: Botrytis cinerea; experiment: Test E: tomato botrytis, preventive spray on tomato seedlings; settings: for Test E disease control rating: 40 ppm (marked *), 100 = 100% disease control, 0 = no control
[12] = 40 ppm (marked *), 0 = no control
[13] = Zymoseptoria tritici, 528 h, read-out: Test J disease control rating
[14] = Botrytis cinerea, in Solanum lycopersicum, topical, 72 h, read-out: Test E disease control rating
[15] = 0 = no control relative to controls
[16] = 200 ppm, 0 = no control relative to controls

SMILES	Test J disease control rating [1]	Test F disease control rating [2, 12]	Test G disease control rating ([3]; 0 = no control)	Test E disease control rating [11]	Test I disease control rating [4, 12]	Test B disease control rating ([5]; 0 = no control)	Test A disease control rating [6, 12]	Test D disease control rating [8, 12]	Test H disease control rating [9, 12]	Test L disease control rating ([7]; 0 = no control)	Test K disease control rating [10]	further results
CC(C)Cn1c(-c2c(F)cccc2F)cnc(-n2cccn2)c1=O [Compound 342, 6-(2,6-Difluorophenyl)-1-(2-methylpropyl)-3-(1H-pyrazol-1-yl)-2(1H)-pyrazinone]	–	–	–	–	–	–	–	–	–	–	–	pest or weed control at 200 ppm ([1]; Zymoseptoria tritici, 528 h, 200 ppm, read-out: Test J disease control rating): 82%; pest or weed control at 200 ppm [2]: 0%; pest or weed control at 200 ppm ([3]; Waitea circinata, in Agrostis stolonifera, topical, 144 h, 0 = no control): 95%; pest or weed control at 200 ppm ([4]; 0 = no control): 0%; pest or weed control at 200 ppm ([5]; Colletotrichum orbiculare, in Cucumis sativus, 144 h, 0 = no control): 0%; pest or weed control at 200 ppm [6]: 0%; pest or weed control at 200 ppm ([7]; Blumeria graminis, in Triticum aestivum, 168 h, 0 = no control): 96%; pest or weed control at 200 ppm ([8]; 200 ppm, 0 = no control): 0%; pest or weed control at 200 ppm ([9]; Parastagonospora nodorum, in Triticum aestivum, topical, 168 h, 0 = no control): 0%; pest or weed control at 200 ppm ([10]; Puccinia recondita, in Triticum aestivum, 192 h, read-out: Test K disease control rating): 98%
Nn1c(-c2c(F)cccc2F)c(Cl)nc(-n2cccn2)c1=O [Compound 400, 1-Amino-5-chloro-6-(2,6-difluorophenyl)-3-(1H-pyrazol-1-)-2(1H)-pyrazinone]	0* %	0* %	0* %	0* %	0* %	0* %	0* %	0* %	0* %	–	–	–
NC(=O)c1nc(Cl)c(-c2c(F)cc(F)cc2F)n(-c2cccc(F)c2)c1=O [Compound 414, 6-Chloro-4-(3-fluorophenyl)-3,4-dihydro-3-oxo-5-(2,4,6-trifluorophenyl)pyrazinecarboxamide]	–	–	–	–	–	–	–	–	–	–	–	pest or weed control at 40 ppm [1, 13]: 97%; pest or weed control at 200 ppm [2]: 85%; pest or weed control at 40 ppm ([3]; Waitea circinata, in Agrostis stolonifera, topical, 144 h, read-out: Test G disease control rating, 40 ppm (marked *), 0 = no control): 0%; pest or weed control at 40 ppm [11, 14]: 99%; pest or weed control at 200 ppm [4, 15]: 35%; pest or weed control at 40 ppm ([5]; Colletotrichum orbiculare, in Cucumis sativus, 144 h, read-out: Test B disease control rating, 40 ppm (marked *), 0 = no control): 0%; pest or weed control at 200 ppm [6]: 95%; pest or weed control at 40 ppm ([7]; Blumeria graminis, in Triticum aestivum, 168 h, read-out: Test L disease control rating, 40 ppm (marked *), 0 = no control): 98%; pest or weed control at 200 ppm [8, 16]: 40%; pest or weed control at 40 ppm ([9]; Parastagonospora nodorum, in Triticum aestivum, topical, 168 h, read-out: Test H disease control rating, 40 ppm (marked *), 0 = no control): 0%
CCC(C)Cn1c(-c2ccc(F)cc2F)c(C)nc(C#N)c1=NC(C)=O (stereo not drawn) [Compound 430, N-[3-Cyano-6-(2,4-difluorophenyl)-5-methyl-1-(2-methylbutyl)-2(1H)-pyrazinylidene]acetamide]	–	–	–	–	–	–	–	–	–	–	–	pest or weed control at 40 ppm [1, 13]: 86%; pest or weed control at 200 ppm [2]: 0%; pest or weed control at 200 ppm ([3]; Waitea circinata, in Agrostis stolonifera, topical, 144 h, 0 = no control relative to controls): 0%; pest or weed control at 200 ppm [11, 14]: 96%; pest or weed control at 200 ppm [4, 15]: 0%; pest or weed control at 200 ppm ([5]; Colletotrichum orbiculare, in Cucumis sativus, 144 h, 0 = no control relative to controls): 0%; pest or weed control at 200 ppm [6]: 0%; pest or weed control at 200 ppm ([7]; Blumeria graminis, in Triticum aestivum, 168 h, 0 = no control relative to controls): 93%; pest or weed control at 200 ppm [8, 16]: 0%; pest or weed control at 200 ppm ([9]; Parastagonospora nodorum, in Triticum aestivum, topical, 168 h, 0 = no control relative to controls): 0%
O=c1c(-n2cccn2)nc(Cl)c(-c2c(F)cccc2F)n1Cc1ccccc1F [compound 330]	100* %	0* %	41* %	–	0* %	0* %	0* %	0* %	99* %	71* %	100* %	–
Cc1ccn(-c2nc(Cl)c(-c3c(F)cccc3F)n(Cc3ccc(F)cc3)c2=O)n1 [compound 331]	100* %	0* %	16* %	–	0* %	90* %	0* %	47* %	100* %	76* %	100* %	–
Cc1ccc(-n2c(-c3c(F)cccc3F)c(Cl)nc(-n3ccc(C)n3)c2=O)cc1 [compound 332]	98* %	0* %	0* %	–	0* %	0* %	0* %	24* %	94* %	71* %	95* %	–
Cc1ccc(-n2c(-c3c(F)cccc3F)c(Cl)nc(-n3cccn3)c2=O)cc1 [compound 333]	98* %	0* %	17* %	–	0* %	37* %	0* %	47* %	99* %	0* %	99* %	–
Cc1ccc(-n2c(-c3c(F)cccc3F)c(Cl)nc(-n3cccn3)c2=O)c(C)c1 [compound 334]	96* %	0* %	0* %	–	0* %	0* %	0* %	0* %	–	0* %	91* %	Test H disease control rating ([9]; 200 ppm, 0 = no control): 0%
O=c1c(-n2cccn2)nc(Cl)c(-c2c(F)cccc2F)n1-c1ccc(F)c(F)c1 [compound 388]	100* %	0* %	0* %	99* %	0* %	67* %	0* %	0* %	97* %	0* %	–	–
Cc1ccn(-c2nc(Cl)c(-c3c(F)cccc3F)n(-c3ccc(F)c(F)c3)c2=O)n1 [compound 389]	100* %	0* %	31* %	99* %	0* %	98* %	0* %	0* %	94* %	0* %	–	–
CCCn1c(-c2c(F)cc(F)cc2F)c(Cl)nc(C(N)=O)c1=O [compound 413]	93* %	–	0* %	99* %	–	0* %	–	–	99* %	98* %	–	Test F disease control rating [2, 16]: 95%; Test I disease control rating [4, 16]: 0%; Test A disease control rating [6, 16]: 68%; Test D disease control rating [8, 16]: 64%
CCC(C)Cn1c(-c2c(F)cc(F)cc2F)c(Cl)nc(C(N)=O)c1=O (stereo not drawn) [compound 415]	95* %	–	0* %	99* %	–	91* %	–	–	100* %	99* %	–	Test F disease control rating [2, 16]: 99%; Test I disease control rating [4, 16]: 0%; Test A disease control rating [6, 16]: 86%; Test D disease control rating [8, 16]: 95%
